Data: the Kinase Knowledgebase extract (Sharma et al. 2016)

molecular target: PIK3CG (human) (UniProt P48736); assay: Inhibition of PIK3CG Kinase Activity
Sequence (P48736 whole entry, looked up): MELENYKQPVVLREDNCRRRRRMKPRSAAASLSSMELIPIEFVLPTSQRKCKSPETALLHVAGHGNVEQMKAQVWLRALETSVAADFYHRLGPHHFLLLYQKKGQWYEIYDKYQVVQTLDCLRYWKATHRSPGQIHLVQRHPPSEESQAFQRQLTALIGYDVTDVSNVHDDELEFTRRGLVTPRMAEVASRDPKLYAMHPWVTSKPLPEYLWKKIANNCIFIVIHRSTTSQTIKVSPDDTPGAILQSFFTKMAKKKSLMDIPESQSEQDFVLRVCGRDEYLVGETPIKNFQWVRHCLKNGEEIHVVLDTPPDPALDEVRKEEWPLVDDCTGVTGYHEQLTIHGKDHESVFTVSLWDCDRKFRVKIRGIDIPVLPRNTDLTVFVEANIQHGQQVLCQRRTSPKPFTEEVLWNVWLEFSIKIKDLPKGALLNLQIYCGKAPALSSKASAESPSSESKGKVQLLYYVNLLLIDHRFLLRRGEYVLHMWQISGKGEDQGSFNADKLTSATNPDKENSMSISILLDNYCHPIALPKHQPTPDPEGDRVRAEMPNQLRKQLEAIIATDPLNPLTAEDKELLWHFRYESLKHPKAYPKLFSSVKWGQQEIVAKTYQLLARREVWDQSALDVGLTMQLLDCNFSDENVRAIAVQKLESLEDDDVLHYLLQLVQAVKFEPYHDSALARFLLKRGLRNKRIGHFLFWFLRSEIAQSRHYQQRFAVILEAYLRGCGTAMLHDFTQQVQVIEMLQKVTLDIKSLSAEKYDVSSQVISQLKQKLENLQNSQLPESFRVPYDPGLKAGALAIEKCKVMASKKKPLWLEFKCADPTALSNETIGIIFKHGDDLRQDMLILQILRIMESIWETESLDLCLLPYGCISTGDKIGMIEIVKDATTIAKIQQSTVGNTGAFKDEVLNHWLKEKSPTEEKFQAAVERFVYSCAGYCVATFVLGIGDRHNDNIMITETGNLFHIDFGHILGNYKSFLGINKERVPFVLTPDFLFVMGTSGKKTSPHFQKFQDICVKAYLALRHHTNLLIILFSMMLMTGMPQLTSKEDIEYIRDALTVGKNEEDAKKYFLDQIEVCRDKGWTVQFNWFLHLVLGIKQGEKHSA

Ki | Compound
< 100 nM | COc1cc(-c2ccc3c(n2)[C@@H](C)N(c2cn[nH]c2)C3=O)cnc1OC
< 100 nM | COc1ncc(-c2ccc3c(n2)CN(c2ccn(C)n2)C3=O)cc1OC(F)F
< 100 nM | COc1cc(-c2cc(C)c3c(n2)CN(c2ccnc(F)c2)C3=O)cnc1OC
< 100 nM | C#CCNC(=O)c1cncc(-c2cc(C)c3c(n2)C(C)(C)N(c2cnn(CC(F)(F)F)c2)C3=O)c1
< 100 nM | CCNC(=O)c1cc(-c2cc(C)c3c(n2)C(C)(C)N(c2cnn(CC(F)(F)F)c2)C3=O)cnc1OC
< 100 nM | COc1cc(-c2ccc3c(c2)CN(c2cc(C4CC4)[nH]n2)C3=O)cnc1OC
< 100 nM | COc1ncc(-c2cc(C)c3c(n2)CN(c2cc[nH]n2)C3=O)cc1OC(F)F
< 100 nM | CC[C@@H]1c2nc(-c3cnc(OC)c(OC)c3)ccc2C(=O)N1c1cnn(CC(F)(F)F)c1
100 to 490 nM | Cc1cc(-c2cncc(C(=O)N(C)C(C)CO)c2)nc2c1C(=O)N(c1cnn(CC(F)(F)F)c1)C2 (configuration not stated)
< 100 nM | COc1cncc(-c2cc(C)c3c(n2)CN(c2ccn(CC4CCCO4)n2)C3=O)c1 (configuration not stated)
< 100 nM | COc1cc(-c2cc(C)c3c(n2)CN(c2cnn(CC(F)(F)F)c2)C3=O)cnc1C
< 100 nM | Cc1cc(-c2cncc(OC3CC3)c2)nc2c1C(=O)N(c1cnn(CC(F)(F)F)c1)C2(C)C
< 100 nM | COc1cc(-c2ccc3c(n2)CN(c2cnn(C(CO)C(F)(F)F)c2)C3=O)cnc1OC (configuration not stated)
100 to 490 nM | CCOc1cncc(-c2cc(C)c3c(n2)C(C)(C)N(c2cn[nH]c2)C3=O)c1
< 100 nM | Cc1cc(-c2cncc(C(=O)NC(C)(C)C)c2)nc2c1C(=O)N(c1cnn(CC(F)(F)F)c1)C2(C)C
100 to 490 nM | CCn1ccc(N2C(=O)c3c(C)cc(-c4cncc(OCC(F)F)c4)nc3[C@@H]2C)n1

Ki | Compound
< 100 nM | COc1cc(-c2cc(C)c3c(n2)CN(c2cncnc2)C3=O)cnc1OC
< 100 nM | COc1ncc(-c2cc(C)c3c(n2)C(C)(C)N(c2cnn(CC(F)(F)F)c2)C3=O)cc1C(=O)NC1COC1
< 100 nM | C#CCn1cc(N2Cc3cc(-c4cnc(OC)c(OC)c4)ccc3C2=O)cn1
< 100 nM | CCOc1ncc(-c2cc(C)c3c(n2)CN(c2cn(CC(F)(F)F)cn2)C3=O)cc1OC
100 to 490 nM | Cc1cc(-c2cnc3ccccc3c2)nc2c1C(=O)N(c1cn[nH]c1)C2
100 to 490 nM | Cc1ncc(-c2ccc3c(n2)CN(c2cnn(CC(F)(F)F)c2)C3=O)cc1OCC(F)F
< 100 nM | COc1cncc(-c2cc(C)c3c(n2)CN(c2cnn(C(C)(C)C#N)c2)C3=O)c1
100 to 490 nM | Cc1cc(-c2cncc(C(=O)N(C)C)c2)nc2c1C(=O)N(c1cnn(CC(F)(F)F)c1)C2(C)C
< 100 nM | COc1ccc(-c2cc(C)c3c(n2)CN(c2cnn(CC#N)c2)C3=O)nc1OC
< 100 nM | Cc1cc(-c2cncc(OC(F)F)c2)nc2c1C(=O)N(c1cncc(C(C)(C)C#N)c1)C2
< 100 nM | CCOc1cncc(-c2cc(C)c3c(n2)C2(CCOC2)N(c2cnn(CC(F)(F)F)c2)C3=O)c1 (configuration not stated)
100 to 490 nM | COc1cc(-c2ccc3c(n2)CN(c2cnn(CCn4nccc4C)c2)C3=O)cnc1OC
100 to 490 nM | COc1cc(-c2ccc3c(n2)C(C)N(c2ccnc(C(C)(C)C#N)c2)C3=O)cnc1OC (configuration not stated)
< 100 nM | Cc1cc(-c2cncc(OC(F)F)c2)nc2c1C(=O)N(c1cnn(CC(F)(F)F)c1)C2(C)O (configuration not stated)
< 100 nM | COc1cc(-c2ccc3c(c2)CN(c2cn(C)nn2)C3=O)cnc1OC
< 100 nM | COc1cc(-c2cc(C)c3c(n2)CN(c2cnn(C[C@H](C)O)c2)C3=O)cnc1OC
